Assay results: US20180327367A1, “MACROCYCLIC BROAD SPECTRUM ANTIBIOTICS” (priority 2015, published 2018)
pIC50: −log10 of the molar value. Values after ≈ are worked out from the molar mass of the structure shown. Where two headings read alike, the source gives them in different places.

Experiments:
[1] = molecular target: T1, SpsB (Staphylococcus aureus signal peptidase) (Staphylococcus aureus, UniProt P0A070); assay: cell-based; type: biochemical; settings: SpsB IC50, whole-cell S. aureus (USA300 background, overexpressing SpsB) as SpsB source; fluorogenic peptide substrate, kinetic read 30 min
T1 construct: This assay uses a suspension of Staphylococcus aureus cells as a source of SpsB instead of recombinant SpsB protein; endogenous in cells; host or cells: S. aureus, USA300 background, overexpressing SpsB (whole-cell suspension from frozen pellets)
Protocol: A kinetic fluorogenic enzyme activity assay was used to assess inhibition of SpsB (Staphylococcus aureus signal peptidase) activity and IC50s were determined. This assay uses a suspension of Staphylococcus aureus cells as a source of SpsB instead of recombinant SpsB protein.
Cell preparation: Luria broth (LB) was inoculated with S. aureus (USA300 background, overexpressing SpsB) and shaken at 37° C. until an OD600 nm of 1.5-2.0 was reached (˜4 hr). The culture was then diluted to an OD600 nm of 1.0 with LB, aliquoted and centrifuged at 10,000×g for 2 mins. The supernatant was removed and the pellet was resuspended in phosphate buffer (1×PBS, 12.5 mg/L MgCl2, 25 mg/L CaCl2, 0.1% Tween-80) to an OD600 nm of 0.5, then centrifuged again at 10,000x g for 2 mins. The supernatant was removed and the pellets were frozen at −20° C.
Test compounds were prepared in DMSO at a concentration of 10 mg/mL. These compound stocks were diluted into DMSO to a concentration of 25 μg/mL and serial 3-fold dilutions were made in DMSO, for a total of 11 compound concentrations. 20 nL of each compound solution was pre-spotted into a white 384-well plate (50 μL/well polypropylene, Nunc) using acoustic fluid transfer (Echo).
Frozen S. aureus pellets were resuspended in assay buffer (1x PBS, 12.5 mg/L MgCl2, 25 mg/L CaCl2, 0.1% Tween-80) to an OD600 nm of 0.05, then mixed 1:1 (v/v) with 20 μM substrate ((Dabcyl)βAla-KPAKAAE(Edans)) in assay buffer, and this solution was added (20 μL/well) to the 384-well plate that had been pre-spotted with compound. Fluorescence intensity was then immediately read kinetically for 30 minutes with 2 minute read intervals to monitor cleavage of the internally quenched peptide substrate (excitation wavelength=340 nm, emission wavelength=490 nm, Molecular Devices Spectramax M5). Reaction rate (slope) was plotted against inhibitor concentration to derive the IC50.

[2] = system: Escherichia coli MC4100 harboring the IMP4213 (E. coli IMP); assay: microbe, parasite or virus in culture; type: cell-based; settings: Escherichia coli, 22 h, read-out: MIC (μg/mL) E. coli IMP, E. coli MC4100 IMP4213, increased outer-membrane permeability; 35° C., 22 hours
Method in brief: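 Broth micro-dilution per CLSI in cation-adjusted Mueller Hinton Broth with 0.002% Tween-80; E. coli MC4100 carries IMP4213, raising outer-membrane permeability. Compounds tested as 2-fold serial dilutions (10 concentrations) from 4 μg/mL (protocol 2) or 0.5 μg/mL (protocol 3); inoculum OD600 0.0005, 35° C for 22 hours.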

[3] = system: Methicillin Resistant Staphylococcus aureus strain USA 300, NRS384; assay: Minimum inhibitory concentration, broth micro-dilution (CLSI), S. aureus; type: cell-based; settings: Staphylococcus aureus, MRSA / NRS 384 / USA300, 22 h, 35° C., 22 hours
Method in brief: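 Colonies grown 20 hours at 35° C were suspended in cation-adjusted Mueller Hinton Broth with 0.002% Tween-80. Cells were then added to 2-fold compound dilutions starting at 4 or 0.5 μg/mL, at OD600 0.0005.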

[4] = system: Escherichia coli ATCC 25922; assay: Minimum inhibitory concentration, broth micro-dilution (CLSI), E. coli; type: cell-based; settings: Escherichia coli, ATCC25922, 22 h, 35° C., 22 hours
[5] = MRSA USA 300 NRS384, read-out: MIC (μg/mL) S. aureus
[6] = E. coli ATCC 25922, read-out: MIC (μg/mL) E. coli
[7] = read-out: MIC (μg/mL) S. aureus, MRSA USA 300 NRS384
[8] = read-out: MIC (μg/mL) E. coli, E. coli ATCC 25922

T1 sequence (P0A070 whole entry): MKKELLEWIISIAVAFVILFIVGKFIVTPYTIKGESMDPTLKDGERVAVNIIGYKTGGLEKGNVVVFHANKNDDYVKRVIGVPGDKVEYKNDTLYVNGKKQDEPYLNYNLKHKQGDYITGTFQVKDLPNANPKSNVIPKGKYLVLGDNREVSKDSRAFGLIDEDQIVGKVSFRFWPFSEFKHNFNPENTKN

Row | Compound | pIC50 [1] | MIC [2] | MIC [3, 5] | MIC [4, 6] | MIC [3, 7] | MIC [4, 8]
1 | CCCCc1ccc(C#CC(=O)N[C@@H](CCN)C(=O)N(C)[C@@H]2C(=O)N[C@@H](C)C(=O)N[C@H](C(=O)NCC#N)Cc3ccc(OCCN)c(c3)-c3cc2ccc3OCCN)cc1 [Compound 124] | 8.80 | 0.031 µg/mL (≈ 0.0377 µM) | 0.13 µg/mL (≈ 0.158 µM) | 2 µg/mL (≈ 2.43 µM) |  | 
2 | CCCCc1ccc(C(=O)N[C@@H](CCCN)C(=O)N(C)[C@@H]2C(=O)N[C@@H](C)C(=O)N[C@H](C(=O)NCC#N)Cc3ccc(OCCN)c(c3)-c3cc2ccc3OCCN)cc1 [Compound 127] | 8.23 | 0.063 µg/mL (≈ 0.0776 µM) | 0.5 µg/mL (≈ 0.616 µM) | 4 µg/mL (≈ 4.93 µM) |  | 
3 | CCCCCCCCCCNCCC(=O)N[C@@H](CCN)C(=O)N(C)[C@@H]1C(=O)N[C@@H](C)C(=O)N[C@H](C(=O)NCC#N)Cc2ccc(OCCN)c(c2)-c2cc1ccc2OCCN [Compound 129] | 9.17 | 0.094 µg/mL (≈ 0.111 µM) | 0.023 µg/mL (≈ 0.0271 µM) | 4 µg/mL (≈ 4.71 µM) |  | 
4 | CCCCCCCCCCNCCC(=O)N(C)[C@@H]1C(=O)N[C@@H](C)C(=O)N[C@H](C(=O)NCC#N)Cc2ccc(OCCN)c(c2)-c2cc1ccc2OCCN [Compound 131] | 9.13 | 1.8 µg/mL (≈ 2.4 µM) | 0.047 µg/mL (≈ 0.0628 µM) | 64 µg/mL (≈ 85.5 µM) |  | 
5 | CCCCCCCCCCNCC(=O)N(C)[C@@H]1C(=O)N[C@@H](C)C(=O)N[C@H](C(=O)NCC#N)Cc2ccc(OCCN)c(c2)-c2cc1ccc2OCCN [Compound 132] | 9.15 | 3 µg/mL (≈ 4.08 µM) |  |  | 0.25 µg/mL (≈ 0.34 µM) | > 64 µg/mL
6 | CCCCCCCCCNCCCC(=O)N(C)[C@@H]1C(=O)N[C@@H](C)C(=O)N[C@H](C(=O)NCC#N)Cc2ccc(OCCN)c(c2)-c2cc1ccc2OCCN [Compound 133] | 8.96 | > 4 µg/mL | 0.25 µg/mL (≈ 0.334 µM) | > 64 µg/mL |  | 
7 | CCCCCCCCNCCCCC(=O)N(C)[C@@H]1C(=O)N[C@@H](C)C(=O)N[C@H](C(=O)NCC#N)Cc2ccc(OCCN)c(c2)-c2cc1ccc2OCCN [Compound 134] | 8.46 | > 4 µg/mL | 1.5 µg/mL (≈ 2 µM) | > 64 µg/mL |  | 
8 | CCCCc1ccc(-c2ccc(C(=O)N[C@@H](CCCCN)C(=O)N(C)[C@@H]3C(=O)N[C@@H](C)C(=O)N[C@H](C(=O)N[C@H](C)C#N)Cc4ccc(OCCN)c(c4)-c4cc3ccc4OCCN)cc2)cc1 [Compound 136] | 8.00 | 0.38 µg/mL (≈ 0.415 µM) | 2 µg/mL (≈ 2.18 µM) | 8 µg/mL (≈ 8.73 µM) |  | 
9 | CCCCc1ccc(-c2cccc(C(=O)N[C@@H](CCCCN)C(=O)N(C)[C@@H]3C(=O)N[C@@H](C)C(=O)N[C@H](C(=O)NCC#N)Cc4ccc(OCCN)c(c4)-c4cc3ccc4OCCN)c2)cc1 [Compound 137] | 8.96 | 0.063 µg/mL (≈ 0.0698 µM) | 0.063 µg/mL (≈ 0.0698 µM) | 4 µg/mL (≈ 4.43 µM) |  | 
10 | C[C@@H]1NC(=O)[C@@H](N(C)C(=O)[C@H](CCN)NC(=O)c2ccc(-c3ccc4c(c3)CCCC4)cc2)c2ccc(OCCN)c(c2)-c2cc(ccc2OCCN)C[C@@H](C(=O)NCC#N)NC1=O [Compound 138] | 9.03 | 0.055 µg/mL (≈ 0.0631 µM) |  |  | 0.063 µg/mL (≈ 0.0722 µM) | 0.25 µg/mL (≈ 0.287 µM)
11 | C[C@@H]1NC(=O)[C@@H](N(C)C(=O)[C@H](CCN)NC(=O)c2ccc(-c3ccc4c(c3)CCCC4)cc2F)c2ccc(OCCN)c(c2)-c2cc(ccc2OCCN)C[C@@H](C(=O)NCC#N)NC1=O [Compound 139] | 9.03 | 0.012 µg/mL (≈ 0.0135 µM) |  |  | 0.047 µg/mL (≈ 0.0528 µM) | 0.25 µg/mL (≈ 0.281 µM)
12 | C[C@@H]1NC(=O)[C@@H](N(C)C(=O)[C@H](CCN)NC(=O)c2ccc(-c3ccc4c(c3)CCCC4)cc2Cl)c2ccc(OCCN)c(c2)-c2cc(ccc2OCCN)C[C@@H](C(=O)NCC#N)NC1=O [Compound 140] | 9.00 | 0.0078 µg/mL (≈ 0.0086 µM) |  |  | 0.031 µg/mL (≈ 0.0342 µM) | 0.13 µg/mL (≈ 0.143 µM)
13 | CCCCc1ccc(-c2ccc(C(=O)N[C@@H](CCCN)C(=O)N(C)[C@@H]3C(=O)N[C@@H](C)C(=O)N[C@H](C(=O)NCC#N)Cc4ccc(OCCN)c(c4)-c4cc3ccc4OCCN)c(C)c2)cc1 [Compound 142] | 9.14 | 0.042 µg/mL (≈ 0.0466 µM) | 0.039 µg/mL (≈ 0.0432 µM) | 0.16 µg/mL (≈ 0.177 µM) |  | 
